Source: patent US20130029942A1, “COMPOUNDS AND THERAPEUTICAL USES THEREOF” (Myrexis, Inc., priority 2003, published 2013)

System: T-47D cells
Test: Caspase cascade activation / induction of apoptosis in T-47D cells (fluorogenic N-(Ac-DEVD)-N'-ethoxycarbonyl-R110 substrate)
Assay type: cell-based, human
Settings: T-47D, 24 hr; for EC50: Homo sapiens, T47D, read-out: T-47D (24 hr) EC50

EC50 [nM] | SMILES | T-47D (24 hr) Ratio (caspase activity, net RFU compound / control)
> 10000 | Cc1nc(N(C)c2ccc(C(=O)O)cc2)c2ccccc2n1 [Example 116, 4-(N-Methyl-N-(2-methylquinazolin-4-yl)amino)benzoic Acid] | –
> 10000 | COc1ccc(N(C)c2nc(C(=O)O)nc3ccccc23)cc1 [Example 118, 4-(N-(4-Methoxy-phenyl)-N-methylamino)quinazoline-2-carboxylic acid] | –
4290 | Cc1nc(N(C)c2ccc(C(=O)ON3C(=O)CCC3=O)cc2)c2ccccc2n1 [Example 119, Succinimidyl 4-(N-Methyl-N-(2-methylquinazolin-4-yl)amino)benzoic acid ester] | –
8 | COc1ccc(N(C)c2nc(SC)nc3ccccc23)cc1 [Example 120, (2-Methylthio-quinazolin-4-yl)-(4-methoxy-phenyl)-methyl-amine] | –
16 | COc1ccc(N(C)c2nc(N(C)C)nc3ccccc23)cc1 [Example 122, (2-Dimethylamino-quinazolin-4-yl)-(4-methoxy-phenyl)-methyl-amine] | –
8 | CNc1nc(N(C)c2ccc(OC)cc2)c2ccccc2n1 [Example 123, (2-Methylamino-quinazolin-4-yl)-(4-methoxy-phenyl)-methyl-amine] | –
408 | Cc1nc(N(C)c2ccc(F)cc2)c2ccccc2n1 [Example 124, (4-Fluoro-phenyl)-(2-methyl-quinazolin-4-yl)-methyl-amine] | –
385 | COc1ccc(N(C)c2nc(C)nc3ccccc23)nn1 [Example 125, (6-Methoxy-pyridazin-3-yl)-(2-methyl-quinazolin-4-yl)-methyl-amine] | –
> 10000 | Cc1nc(Nc2ccc(O)cc2)c2ccccc2n1 [Example 127, (4-hydroxy-phenyl)-(2-methyl-quinazolin-4-yl)-amine] | –
27 | CNc1nc(N(C)c2ccc(OC)nc2)c2ccccc2n1 [Example 129, (2-Methylamino-quinazolin-4-yl)-(6-methoxy-pyridin-3-yl)-methyl-amine] | –
> 10000 | C[C@H]1CC[C@H](Nc2nc(Cl)nc3ccccc23)CC1 [Example 131, (2-chloro-quinazolin-4-yl)-(trans-4-methylcyclohexyl)-amine] | 1.2
> 10000 | Cc1nc(Nc2ccncc2)c2ccccc2n1 [Example 135, (2-Methyl-quinazolin-4-yl)-(pyridin-4-yl)-amine] | –

Second part, the compound before the results:

SMILES | EC50 [nM] | T-47D (24 hr) Ratio (caspase activity, net RFU compound / control)
CCOC(=O)c1nc(N(C)c2ccc(OC)cc2)c2ccccc2n1 [Example 117, Ethyl 4-(N-(4-Methoxy-phenyl)-N-methylamino)quinazoline-2-carboxylate] | 134 | –
COc1ccc(N(C)c2nc(N=[N+]=[N-])nc3ccccc23)cc1 [Example 121, (2-Azido-quinazolin-4-yl)-(4-methoxy-phenyl)-methyl-amine] | 30 | –
COc1cnc(N(C)c2nc(C)nc3ccccc23)cn1 [Example 126, (5-Methoxy-pyrazin-2-yl)-(2-methyl-quinazolin-4-yl)-methyl-amine] | 55 | –
COc1ccc(N(C)c2nc(N(C)C)nc3ccccc23)cn1 [Example 128, (2-Dimethylamino-quinazolin-4-yl)-(6-methoxy-pyridin-3-yl)-methyl-amine] | 58 | –
C[C@H]1CC[C@@H](Nc2nc(Cl)nc3ccccc23)CC1 [Example 130, (2-Chloro-quinazolin-4-yl)-(cis-4-methylcyclohexyl)-amine] | > 10000 | –
CN(c1nc(Cl)nc2ccccc12)[C@H]1CC[C@@H](C)CC1 [Example 132, (2-Chloro-quinazolin-4-yl)-(cis-4-methylcyclohexyl)-methyl-amine] | > 10000 | –
CN(c1nc(Cl)nc2ccccc12)[C@H]1CC[C@H](C)CC1 [Example 133, (2-Chloro-quinazolin-4-yl)-(trans-4-methylcyclohexyl)-methyl-amine] | > 10000 | –
Cc1nc(N(C)c2cnccn2)c2ccccc2n1 [Example 134, (2-Methyl-quinazolin-4-yl)-(pyrazin-2-yl)-methyl-amine] | > 10000 | –
